Experimental findings from BindingDB's records for doi:10.1016/j.chembiol.2011.01.012 (University of Luxembourg, 2011) are described below.

The target of assay [1] is Non-receptor tyrosine-protein kinase TYK2 (Homo sapiens, UniProt P29597). In words: Enzyme Assay. The note with it: pH 7.5; 30 °C.
Assay [2] has as its target Tyrosine-protein kinase JAK1 (Homo sapiens, UniProt P23458). In words: Enzyme Assay. The note with it: pH 7.5; 30 °C.

pIC50: −log10 of the molar value.

Chain of Tyrosine-protein kinase JAK1 (P23458 whole entry): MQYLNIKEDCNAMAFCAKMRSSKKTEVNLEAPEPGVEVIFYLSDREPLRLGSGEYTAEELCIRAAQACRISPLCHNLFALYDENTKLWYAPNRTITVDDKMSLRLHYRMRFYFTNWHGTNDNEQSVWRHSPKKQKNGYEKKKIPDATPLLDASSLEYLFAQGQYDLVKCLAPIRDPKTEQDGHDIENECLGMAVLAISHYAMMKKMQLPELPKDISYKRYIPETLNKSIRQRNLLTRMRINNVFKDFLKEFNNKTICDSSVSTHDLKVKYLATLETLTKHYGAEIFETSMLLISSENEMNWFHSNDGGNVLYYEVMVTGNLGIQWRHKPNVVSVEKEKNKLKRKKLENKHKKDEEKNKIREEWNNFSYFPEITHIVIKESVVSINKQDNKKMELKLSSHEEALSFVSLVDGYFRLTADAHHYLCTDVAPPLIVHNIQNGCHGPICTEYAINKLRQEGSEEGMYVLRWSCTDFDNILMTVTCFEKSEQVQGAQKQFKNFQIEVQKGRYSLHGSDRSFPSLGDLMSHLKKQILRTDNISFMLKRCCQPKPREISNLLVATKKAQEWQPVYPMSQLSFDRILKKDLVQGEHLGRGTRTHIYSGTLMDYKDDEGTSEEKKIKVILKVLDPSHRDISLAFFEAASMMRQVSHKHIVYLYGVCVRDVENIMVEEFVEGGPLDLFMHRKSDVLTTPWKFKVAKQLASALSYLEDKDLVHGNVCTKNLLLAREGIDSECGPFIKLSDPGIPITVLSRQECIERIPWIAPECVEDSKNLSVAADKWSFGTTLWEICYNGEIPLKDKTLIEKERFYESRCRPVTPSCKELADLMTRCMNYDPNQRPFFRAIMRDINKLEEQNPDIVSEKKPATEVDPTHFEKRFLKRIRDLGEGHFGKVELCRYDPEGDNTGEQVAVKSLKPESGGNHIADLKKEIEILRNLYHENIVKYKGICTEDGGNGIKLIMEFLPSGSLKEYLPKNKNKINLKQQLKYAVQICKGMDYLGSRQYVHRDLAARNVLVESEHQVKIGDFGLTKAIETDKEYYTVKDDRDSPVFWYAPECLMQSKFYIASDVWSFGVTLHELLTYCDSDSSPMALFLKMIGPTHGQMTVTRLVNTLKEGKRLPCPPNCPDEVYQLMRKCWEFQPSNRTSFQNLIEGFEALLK
Chain of Non-receptor tyrosine-protein kinase TYK2 (P29597 whole entry): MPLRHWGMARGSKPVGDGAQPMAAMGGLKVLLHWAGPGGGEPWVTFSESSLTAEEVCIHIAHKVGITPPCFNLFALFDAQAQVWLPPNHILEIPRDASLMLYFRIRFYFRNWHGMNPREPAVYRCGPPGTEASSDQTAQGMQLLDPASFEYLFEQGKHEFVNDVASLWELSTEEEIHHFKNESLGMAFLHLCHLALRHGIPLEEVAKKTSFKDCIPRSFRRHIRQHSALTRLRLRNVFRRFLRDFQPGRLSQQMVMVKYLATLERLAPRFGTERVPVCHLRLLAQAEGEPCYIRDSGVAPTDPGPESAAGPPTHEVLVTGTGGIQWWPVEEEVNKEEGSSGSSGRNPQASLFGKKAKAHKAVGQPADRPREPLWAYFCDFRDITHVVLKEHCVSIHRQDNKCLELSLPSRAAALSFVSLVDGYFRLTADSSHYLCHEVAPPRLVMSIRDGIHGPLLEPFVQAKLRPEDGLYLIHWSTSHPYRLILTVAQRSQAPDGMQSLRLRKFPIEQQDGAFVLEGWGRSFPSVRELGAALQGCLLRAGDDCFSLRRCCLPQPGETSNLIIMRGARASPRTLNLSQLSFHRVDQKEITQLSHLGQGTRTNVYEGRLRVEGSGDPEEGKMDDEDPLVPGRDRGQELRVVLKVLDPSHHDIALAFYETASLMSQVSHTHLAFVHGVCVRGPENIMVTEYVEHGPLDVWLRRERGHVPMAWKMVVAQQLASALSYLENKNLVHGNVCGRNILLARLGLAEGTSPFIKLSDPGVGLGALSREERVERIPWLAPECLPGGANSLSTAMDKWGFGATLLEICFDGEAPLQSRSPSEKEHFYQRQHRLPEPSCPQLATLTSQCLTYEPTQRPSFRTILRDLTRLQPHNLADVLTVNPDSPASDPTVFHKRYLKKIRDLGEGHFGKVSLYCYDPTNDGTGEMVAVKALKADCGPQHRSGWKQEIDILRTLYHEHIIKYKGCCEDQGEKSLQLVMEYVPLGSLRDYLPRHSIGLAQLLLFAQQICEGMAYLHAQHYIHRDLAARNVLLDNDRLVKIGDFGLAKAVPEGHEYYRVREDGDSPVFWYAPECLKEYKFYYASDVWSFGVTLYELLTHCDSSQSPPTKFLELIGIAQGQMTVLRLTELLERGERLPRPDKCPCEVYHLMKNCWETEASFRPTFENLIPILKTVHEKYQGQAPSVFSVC

Broadly, the pIC50 is the negative decadic logarithm of the IC50, by convention in mol/L. A higher pIC50 goes with a low IC50. Consider `CC(C)(O)C(=O)N1CCN(c2ccc(C(F)(F)F)c(C3=C(c4c[nH]c5ccccc45)C(=O)NC3=O)c2)CC1` [NIBR3049], for which the pIC50 in assay [1] is 5.09; in assay [2], 5.99.
